Columns and labels:
phosphorylated tau = test: Tau histopathology in hTau^P301S mouse model of tauopathy; assay type: in vivo; conditions: hTau^P301S homozygous mice; 20 mg/kg/day s.c. for 28 days; compared to vehicle
Description: Adult hTau^P301S homozygous mice (Tg2541Godt mice, a transgenic mouse model of tauopathy carrying a human Tau^P301S mutation^19 and wild-type (WT) littermates on a C57BL/6J background of both genders were used in the in vivo efficacy on Tau histopathology experiments. hTauP301S homozygous mice were obtained as gifts from Dr. Michel Goedert at MRC Laboratory of Molecular Biology, Cambridge, UK and Dr. Stanley Prusiner at UCSF, USA, and were re-derived onto a pure C57BL/6J genetic background by Dr. Prusiner's lab. Mice were periodically outcrossed with WT C57BL/6J mice (Strain #000664) from Jackson Laboratory (Bar Harbor, ME) to maintain genetic diversity. Animals were group-housed in a temperature-controlled facility (73±2° F., 45% humidity, regular 12-hour light/dark cycle, lights on at 7 AM), with food and water ad libitum. All experimental procedures were approved by the ARC administrative office at the University of California Los Angeles (UCLA) and the UCLA institutional animal care and use committee (IACUC) and followed the USDA Animal Welfare Act Regulations, the Public Health Service (PHS) Policy on Humane Care and Use of Laboratory Animals, and the Guide for the Care and Use of Laboratory Animals. Adult male WT mice on a C57BL/6J background (Strain #000664), purchased from Jackson Laboratory (Bar Harbor, ME), were used in the in vivo pharmacokinetics and blood-brain barrier penetration studies. Animals were randomly assigned to experimental groups and tested by experimenters blinded to experimental conditions.
Osmotic minipump (model #2004) were purchased from Alzet (Cupertino, CA, USA) and implanted into mice subcutaneously (s.c.) following the manufacturer's instruction, as previously described^20. Briefly, animals are placed on a thermoregulation device and anesthetized using isoflurane [4-5% (induction), 1.5-2.5% (maintenance)]. A sterile drape is used to create a sterile field for surgery after animal preparation. […] Animals are monitored observed continuously during the immediate anesthetic-recovery period until the animal is ambulatory. Animals are monitored daily after anesthetic recovery for 7 days. […]
Assessment of tau histopathological in a mouse model of tauopathy Effects of pharmacological manipulations of JMM compounds on tau histopathology were evaluated via osmotic pump chronic infusion at 20 mg/kg/day s.c. over 28 consecutive days in hTau^P301S homozygous mice or WT littermates, starting treatment at the onset of Tau histopathology (i.e., 4.2 months old age). […] Animals are weighted (g) and rectal temperature (° C.) was measured using a thermometer equipped with a mouse rectal probe (Braintree Scientific Inc., Braintree, MA) on treatment day 27. […]

HEK293T cells = test: Cell viability assay (CellTiter Glo); assay type: cell-based, human
Procedure, shortened: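 HEK293T cells seeded at 16,500 per well on poly-L-ornithine in minimal medium with amino acids, vitamins and AlbuMax in HBS, with compound added as a 20-step 2-fold dilution. CellTiter Glo luminescence was read after 24 h. Viability is the signal normalized to DMSO control.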

NPEPPS = target: T1, NPEPPS (Homo sapiens, UniProt P55786); test: Cell-based NPEPPS activity assay (Q-AMC fluorescence); conditions: log10 transformed; EC50 = concentration that elevates 50% NPEPPS activity (150% of DMSO baseline); HEK293T cells
T1 construct: endogenous in cells; host or cells: HEK293T
T1 sequence (P55786 whole entry): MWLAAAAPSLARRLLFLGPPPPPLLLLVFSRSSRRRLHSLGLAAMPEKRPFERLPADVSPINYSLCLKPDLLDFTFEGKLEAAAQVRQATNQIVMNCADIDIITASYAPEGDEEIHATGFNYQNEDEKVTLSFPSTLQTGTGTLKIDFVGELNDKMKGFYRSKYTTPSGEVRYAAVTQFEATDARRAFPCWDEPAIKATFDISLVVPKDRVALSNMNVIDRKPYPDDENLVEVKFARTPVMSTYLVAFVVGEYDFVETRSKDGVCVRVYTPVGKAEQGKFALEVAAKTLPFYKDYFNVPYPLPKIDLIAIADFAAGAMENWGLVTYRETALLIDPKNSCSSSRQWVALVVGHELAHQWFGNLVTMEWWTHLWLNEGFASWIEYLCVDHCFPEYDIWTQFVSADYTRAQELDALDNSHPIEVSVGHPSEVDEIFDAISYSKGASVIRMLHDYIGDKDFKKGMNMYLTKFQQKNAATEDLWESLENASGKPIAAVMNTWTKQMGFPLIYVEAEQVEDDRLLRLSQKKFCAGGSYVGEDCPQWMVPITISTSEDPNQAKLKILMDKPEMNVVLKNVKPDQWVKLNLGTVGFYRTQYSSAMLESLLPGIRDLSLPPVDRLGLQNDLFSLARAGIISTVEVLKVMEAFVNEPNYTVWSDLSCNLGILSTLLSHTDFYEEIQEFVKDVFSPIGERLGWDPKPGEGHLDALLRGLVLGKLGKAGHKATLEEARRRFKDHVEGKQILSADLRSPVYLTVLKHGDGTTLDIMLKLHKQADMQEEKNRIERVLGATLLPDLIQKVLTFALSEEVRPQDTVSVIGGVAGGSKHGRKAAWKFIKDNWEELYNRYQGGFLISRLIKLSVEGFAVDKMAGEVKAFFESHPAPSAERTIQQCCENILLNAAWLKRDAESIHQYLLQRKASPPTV
Procedure, shortened: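 HEK293T cells (16,500/well) on poly-L-ornithine in minimal medium with compounds in 20-step 2-fold dilution for 24 h, then H-Gln-AMC added (30 μl of 200 μM). Fluorescence (ex/em 360/460 nm) read at addition and 3 h later; change in fluorescence taken as NPEPPS activity, giving EC50 versus DMSO control.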

`FC(F)(F)c1ccc(CNc2nsc3cccc(OCc4ccccc4)c23)cc1` [JMM062] was tested, and the “tau histopathology in the cortex (phosphorylated tau staining)” value (phosphorylated tau) was “reduced”, the IC50 (HEK293T cells; Homo sapiens, HEK-293T, log10 transformed, IC50 = concentration that suppresses 50% cell viability, HEK293T cells) was 18.6 µM and the Therapeutic index (HEK293T cells; ratio of IC50 (cell viability) over EC50 (NPEPPS activity)) was 1.42. The EC50 (NPEPPS) was 13.2 µM.
